In BigSolDB 2.1:

C[C@@H]1CC[C@@]2(OC1)O[C@H]1C[C@H]3[C@@H]4CC=C5C[C@@H](O)CC[C@]5(C)[C@H]4CC[C@]3(C)[C@H]1[C@@H]2C
solubility (mole fraction)
Conditions	in n-heptanol	in n-hexanol
300.15 K	–	0.00806
302.26 K	0.0088	–
303.35 K	–	0.00875
305.45 K	0.00959	0.00905
307.65 K	0.0101	–
308.15 K	–	0.00957
309.9 K	0.0106	0.0101
312.12 K	0.0112	0.0107
312.46 K	0.0119	0.0113
313.79 K	–	0.0119
314.11 K	0.0126	–
315.8 K	0.0133	0.0126
317.35 K	–	0.0132
317.75 K	0.014	–
319.26 K	–	0.0139
320.05 K	0.0147	–
320.77 K	–	0.0147
321.07 K	0.0155	–
321.95 K	–	0.0154
323.22 K	0.0163	–
323.95 K	–	0.0161
324.65 K	0.0171	–
325.05 K	–	0.0167
325.35 K	0.0179	–
326.2 K	–	0.0174
327.45 K	0.0188	–
327.95 K	–	0.0181
328.51 K	0.0196	–
329.6 K	0.0202	0.0188
